Experimental data reported in ChEMBL document CHEMBL1201862, “PubChem BioAssay data set” (2004).
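48-hour exposure; five concentrations; linearly interpolated endpoints. At the GI50, growth is halved.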 Calls of active or inactive are those of the source. No stated cut-off is given here; in the data, active = GI50 up to about 1.1 µM and inactive = higher.

Assays:
Experiment in all cases: inhibition of tumour cell growth, NCI panel, 48 h
A549 = tested on: A549
ACHN = tested on: ACHN
COLO 205 = tested on: COLO 205
DU-145 = tested on: DU-145
HL-60 = tested on: HL-60
HOP-62 = tested on: HOP-62
HT-29 = tested on: HT-29
IGROV-1 = tested on: IGROV-1
K562 = tested on: K562
NCI-H522 = tested on: NCI-H522
OVCAR-3 = tested on: OVCAR-3
OVCAR-8 = tested on: OVCAR-8
SK-MEL-5 = tested on: SK-MEL-5
SNB-19 = tested on: SNB-19
SNB-75 = tested on: SNB-75
SW-620 = tested on: SW-620
TK-10 = tested on: TK-10
UACC-257 = tested on: UACC-257
HCC 2998 = tested on: HCC 2998
MDA-MB-231 = tested on: MDA-MB-231

| SMILES | GI50 (A549) | GI50 (ACHN) | GI50 (COLO 205) | GI50 (DU-145) | GI50 (HL-60) | GI50 (HOP-62) | GI50 (HT-29) | GI50 (IGROV-1) | GI50 (K562) | GI50 (NCI-H522) | GI50 (OVCAR-3) | GI50 (OVCAR-8) | GI50 (SK-MEL-5) | GI50 (SNB-19) | GI50 (SNB-75) | GI50 (SW-620) | GI50 (TK-10) | GI50 (UACC-257) | GI50 (HCC 2998) | GI50 (MDA-MB-231) |
| --- | --- | --- | --- | --- | --- | --- | --- | --- | --- | --- | --- | --- | --- | --- | --- | --- | --- | --- | --- | --- |
| CC(C)c1ccc(C(O)(C(=O)O)c2ccc(C(C)C)cc2)cc1 | 33.1 µM (inactive) | 40.2 µM (inactive) | > 100 µM (inactive) | 61.2 µM (inactive) | 39.2 µM (inactive) | 28.3 µM (inactive) | 48.9 µM (inactive) | 55.7 µM (inactive) | 42.5 µM (inactive) | 34 µM (inactive) | 26.1 µM (inactive) | 54.1 µM (inactive) | 56.8 µM (inactive) | 45 µM (inactive) | 42.7 µM (inactive) | 61.8 µM (inactive) | 79.3 µM (inactive) | > 100 µM (inactive) |  |  |
| CCOC(=O)C(C(=O)OCC)=C1NC2(c3ccccc3Nc3ccc(C)cc32)C(C(=O)OC)S1 (stereo not given) | 13.7 µM (inactive) | 21.4 µM (inactive) | 11.6 µM (inactive) | 50.6 µM (inactive) | 20 µM (inactive) | 80 µM (inactive) | 23.9 µM (inactive) | 18.4 µM (inactive) | 18.4 µM (inactive) | 13.6 µM (inactive) | 23.1 µM (inactive) | 29.4 µM (inactive) | 13.9 µM (inactive) | 55.3 µM (inactive) | 14.9 µM (inactive) | 48.6 µM (inactive) | 46.9 µM (inactive) | 26.4 µM (inactive) | 15.9 µM (inactive) |  |
| CN1B(c2ccccc2)N(C)C(=O)N(C)C1=O | > 100 µM (inactive) | > 100 µM (inactive) | > 100 µM (inactive) | > 100 µM (inactive) | > 100 µM (inactive) |  | > 100 µM (inactive) | > 100 µM (inactive) | > 100 µM (inactive) |  |  | > 100 µM (inactive) | > 100 µM (inactive) | > 100 µM (inactive) | 18.4 µM (inactive) | > 100 µM (inactive) | > 100 µM (inactive) | > 100 µM (inactive) |  |  |
| COC(=O)C1C(O)C(C(=O)OC)C(C)N(C)C1C (stereo not given) | > 100 µM (inactive) | > 100 µM (inactive) | > 100 µM (inactive) |  | > 100 µM (inactive) | > 100 µM (inactive) | > 100 µM (inactive) | > 100 µM (inactive) | > 100 µM (inactive) |  | > 100 µM (inactive) | > 100 µM (inactive) | > 100 µM (inactive) | > 100 µM (inactive) |  | > 100 µM (inactive) | > 100 µM (inactive) | > 100 µM (inactive) |  | > 100 µM (inactive) |
| N/N=C(\C(=O)Nc1ccc(Cl)cc1Cl)C(c1cnc2ccccc2n1)[N+](=O)[O-] (stereo not given) | > 100 µM (inactive) | 71.1 µM (inactive) |  |  | > 100 µM (inactive) | > 100 µM (inactive) | > 100 µM (inactive) | 8.47 µM (inactive) | > 100 µM (inactive) | > 100 µM (inactive) | > 100 µM (inactive) | > 100 µM (inactive) | > 100 µM (inactive) |  | > 100 µM (inactive) | > 100 µM (inactive) | > 100 µM (inactive) | > 100 µM (inactive) | > 100 µM (inactive) | > 100 µM (inactive) |
| CC1=NN(c2nc(N)nc(C(C)Sc3cc(Cl)c(C)cc3S(N)(=O)=O)n2)C(C)(C)C1 (stereo not given) | > 10 µM (inactive) | > 10 µM (inactive) | > 10 µM (inactive) | > 10 µM (inactive) | > 10 µM (inactive) | > 10 µM (inactive) | > 10 µM (inactive) | > 10 µM (inactive) | > 10 µM (inactive) | > 10 µM (inactive) | > 10 µM (inactive) | > 10 µM (inactive) | > 10 µM (inactive) | > 10 µM (inactive) | > 10 µM (inactive) | > 10 µM (inactive) | > 10 µM (inactive) | > 10 µM (inactive) | > 10 µM (inactive) |  |
| COC(=O)CC1(O)C(=O)OCc2c1cc1n(c2=O)Cc2c-1nc1ccccc1c2OC (stereo not given) | 0.238 µM (active) | 0.0689 µM (active) | 3.77 µM (inactive) |  | 0.0959 µM (active) | 0.0461 µM (active) | 2.17 µM (inactive) | 2.94 µM (inactive) | 0.918 µM (active) | 0.29 µM (active) | 3.86 µM (inactive) | 0.726 µM (active) | 0.358 µM (active) | 0.6 µM (active) | 0.232 µM (active) | 0.515 µM (active) | > 43.6 µM (inactive) | 5.38 µM (inactive) | 3.71 µM (inactive) |  |
| CC(C)(CN1CCOCC1)C(=O)/C=C/c1ccc(/C=C/C(=O)C(C)(C)CN2CCOCC2)cc1 | 2.89 µM (inactive) | 1.52 µM (inactive) | 1.64 µM (inactive) |  | 1.45 µM (inactive) | 2.46 µM (inactive) | 0.467 µM (active) | 2.09 µM (inactive) | 0.239 µM (active) | 0.278 µM (active) | 1.07 µM (active) | 1.45 µM (inactive) | 1.79 µM (inactive) | 1.55 µM (inactive) | 1.94 µM (inactive) | 1.01 µM (active) | 1.86 µM (inactive) | 1.99 µM (inactive) | 1.83 µM (inactive) |  |
